# Key:
# OCI-LY19 = OCI-LY19 viability, CTG; type: cell-based; conditions: Homo sapiens, OCI-LY19; MYD88 WT Lines; read-out: OCI-LY19 Viability, CTG IC50
# IRAK4 [1] = molecular target: T1, IRAK4 (Homo sapiens (Human), UniProt Q9NWZ3); assay: IRAK4 MSD degradation in OCI-LY10; type: cell-based; conditions: MSD
# Summary of the method: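 OCI-LY10 cells treated with 8-point 1:3 dilutions (top 1 to 10 μM final) for 4 to 24 h at 37° C. Lysate IRAK4 measured by MSD sandwich immunoassay (2H9 capture, Y279 detection, SULFO-TAG anti-rabbit). DC50 from three-parameter logistic fit.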
# SU-DHL2 = SU-DHL2 viability, CTG; type: cell-based; conditions: Homo sapiens, SU-DHL-2; MYD88 Mutant Lines; read-out: SU-DHL2 Viability, CTG IC50
# OCI-LY10 [2] = assay: OCI-LY10 viability, CTG; type: cell-based; conditions: Homo sapiens, OCI-Ly10; MYD88 Mutant Lines; read-out: OCI-LY10 Viability, CTG IC50
# U2932 = U2932 viability, CTG; type: cell-based; conditions: Homo sapiens, U2932; MYD88 WT Lines; read-out: U2932 Viability, CTG IC50
# SU-DHL6 = SU-DHL6 viability, CTG; type: cell-based; conditions: Homo sapiens, SU-DHL-6; MYD88 WT Lines; read-out: SU-DHL6 Viability, CTG IC50
# IRAK4 [3] = molecular target: T1, IRAK4; assay: IRAK4 degradation in OCI-LY10 (DC50); type: cell-based; conditions: read-out: IRAK4 Degradation in OCI-LY10, DC50
# OCI-LY10 [4] = assay: CTG Cell Viability Assay - OCI-LY10; type: cell-based, human; conditions: Homo sapiens, OCI-Ly10, 96 h, OCI-LY10, 4 days; read-out: CTG Cell Viability Assay - OCI-LY10: Average external-IC50
# Summary of the method: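 OCI-LY10 cells exposed to 9-dose, 1:3 dilutions from 10 μM top (0.2% DMSO) for 4 days at 37° C, 5% CO2. Viability by CellTiter-Glo luminescence; IC50 from three-parameter logistic fit.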
# TNFα [5] = assay: Human PBMC LPS TNFα assay; type: cell-based; conditions: hPBMC, LPS stimulation, read-out: IRAK4 hPBMC LPS TNF-α inhibition: Average external-IC50
# Description: Human PBMC LPS TNFα assay. Frozen PBMCs were thawed into RPMI with 10% FBS/1% penicillin/streptomycin and same day plated into 96 well plates at 200,000 PBMC/[…] media per well. Compound plates were prepared in DMSO with D300 cassette as 8-point dose curves in duplicate, starting dose 2 μM, 5-fold. Compounds are added 200 nL into cells for final 200 μL per well. Compound and cells were incubated at 37° C., 5% CO2 for 20 hours. After twenty hours of pretreatment with the compounds, LPS (01 1 1:B4) (Sigma #L2637) was added at 100 ng/ml final concentration and PBMCs incubated an additional five hours at 37° C., 5% CO2. Following assay completion, PBMC plates were spun down at 2000 rpm for 10 minutes. 100 uL of supernatant was carefully removed and placed into a new 96 well Costar (#3879) plate and stored at −80° C. until further analysis. Meso scale Discovery (MSD) human V-plex assays were used to measure cytokine levels. On day of cytokine analysis, supernatant samples were thawed, diluted with V-plex diluent #2, and directly to MSD plates. Assay was further completed per standard manufacturer's protocol. Cytokine data was normalized to LPS stimulated and unstimulated controls. Prism Graphpad was used to generate IC50 using 4 parameter logistic regression curve, free-fit.
# IRAK4 [6] = molecular target: T1, IRAK4; assay: IRAK4 degradation in human whole blood monocyte - flow cytometry; type: cell-based; conditions: read-out: IRAK4 degradation in whole blood monocyte-Flow cytometry: Average external Abs IC50
# Summary of the method: (§1)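 Fresh heparinized human whole blood dosed (10-point, 5-fold, 0.1% DMSO) for 20 h or 4 h at 37 °C, then fixed, stained and IRAK4 MFI quantified by flow in CD14+ monocytes and CD14− lymphocytes. DC50 and Dmax via 4-parameter logistic fit normalized to DMSO and 10 μM control.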
# IRAK4 [7] = molecular target: T1, IRAK4; assay: IRAK4 degradation in human whole blood lymphocyte - flow cytometry; type: cell-based; conditions: read-out: IRAK4 degradation in whole blood lymphocyte-Flow cytometry: Average external Abs IC50
# Summary of the method: as §1
# TNFα [8] = assay: Human whole blood LPS TNFα assay; type: cell-based; conditions: 20 h pretreatment, LPS 5 h, read-out: IRAK4 human whole blood LPS TNFa inhibition: Average external-IC50
# Description: Human Whole blood LPS TNFα assay. Whole blood was collected fresh and plated same day into 96 well plates at 180 μL per well. Compound plates were prepared in DMSO as 8-point dose curves in duplicate, starting dose 2 μM, 5-fold. Compounds are added 20 μL into blood for final 200 μL per well. Compound and cells were incubated at 37° C., 5% CO2 for 20 hours. After twenty hours of pretreatment with the compounds, LPS (01 1 1:B4) (Sigma #L2637) was added at 100 ng/ml final concentration and blood incubated an additional five hours at 37° C., 5% CO2. Following assay completion, whole blood plates were spun down at 2000 rpm for 15 minutes at 4° C. 50 μL of plasma was carefully removed and placed into a new 96 well Costar (#3879) plate and stored at −80° C. until further analysis. Meso scale Discovery (MSD) human V-plex assays were used to measure cytokine levels. On day of cytokine analysis, plasma samples were thawed, diluted with V-plex diluent #2, and directly to MSD plates. Assay was further completed per standard manufacturer's protocol. Cytokine data was normalized to LPS stimulated and unstimulated controls. Prism Graphpad was used to generate IC50 using 4 parameter logistic regression curve, free-fit.
# IL-6 = IL-6 secretion in hPBMC using R848 stimulation; type: cell-based, human; conditions: Homo sapiens, 20 h, hPBMC, R848 as stim, t = 20 h
# IRAK4 [9] = molecular target: T1, IRAK4; assay: hPBMC IRAK4 degradation flow assay; type: cell-based; conditions: hPBMC monocyte, 20 hr, flow assay; read-out: IRAK4 degradation in hPBMC monocyte at 20 hr: Average external Abs DC50
# Summary of the method: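 Thawed human PBMCs treated with 10-point, 5-fold compound dilutions (0.1% DMSO) at 37° C. for 20 hours or 4 hours. IRAK4 measured by flow MFI in CD14+ monocytes and CD14− lymphocytes, normalized to DMSO and 10 μM 20-hour control; DC50 and max degradation from 4-parameter logistic fit.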
# [10] = OCI-LY10, 4 hrs, read-out: IRAK4 MSD degradation in OCI-LY10 at 4 hrs: Average external-Abs DC50
# [11] = OCI-LY10, 24 hrs, read-out: IRAK4 MSD degradation in OCI-LY10 at 24 hrs: Average external-Abs DC50
# T1 sequence (Q9NWZ3 whole entry): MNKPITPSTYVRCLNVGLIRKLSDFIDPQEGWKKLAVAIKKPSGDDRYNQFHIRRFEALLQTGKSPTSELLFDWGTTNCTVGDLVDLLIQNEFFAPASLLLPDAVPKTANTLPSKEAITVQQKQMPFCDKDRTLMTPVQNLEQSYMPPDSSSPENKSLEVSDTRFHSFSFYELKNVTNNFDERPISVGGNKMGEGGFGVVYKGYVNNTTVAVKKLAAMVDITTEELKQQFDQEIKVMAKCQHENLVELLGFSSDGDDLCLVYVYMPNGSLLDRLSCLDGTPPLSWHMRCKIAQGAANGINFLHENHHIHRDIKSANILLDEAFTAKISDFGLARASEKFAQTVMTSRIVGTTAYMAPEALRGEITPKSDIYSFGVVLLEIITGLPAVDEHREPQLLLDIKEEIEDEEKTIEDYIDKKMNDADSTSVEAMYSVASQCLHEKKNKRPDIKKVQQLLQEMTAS
compound,measurement,setting,value
CC[C@@H]1CC(=O)N[C@@H]1COc1ncc(C#C[C@H]2CC[C@H](CN3CCC(OCCCc4cccc5c4n(C)c(=O)n5C4CCC(=O)NC4=O)CC3)CC2)c2cc(C(N)=O)c(OC)cc12 (some centres unmarked) [I-229],IC50,OCI-LY19,> 10000 nM
same,DC50,IRAK4 [1]; [10],10 to 100 nM
same,DC50,IRAK4 [1]; [11],10 to 100 nM
same,IC50,SU-DHL2,> 10000 nM
same,IC50,OCI-LY10 [2],3500 nM
same,IC50,U2932,> 10000 nM
same,IC50,SU-DHL6,4100 nM
same,DC50,IRAK4 [3],26 nM
same,IC50,OCI-LY10 [4],> 1000 nM
CN(C[C@H]1CN(CCCc2ccc3c(c2)n(C)c(=O)n3C2CCC(=O)NC2=O)CCO1)C[C@H]1CC[C@H](n2cc(NC(=O)c3coc(-c4ccnc(NCC5CC5)c4)n3)c(C(F)F)n2)CC1 (some centres unmarked) [I-34],IC50,TNFα [5],100 to 500 nM
same,DC50,IRAK4 [1]; [10],< 10 nM
same,IC50,IRAK4 [6],< 50 nM
same,DC50,IRAK4 [7],< 50 nM
same,IC50,OCI-LY10 [4],> 1000 nM
same,IC50,TNFα [8],100 to 500 nM
CN(CCOCCOCCCc1ccc2c(c1)oc(=O)n2C1CCC(=O)NC1=O)C[C@H]1CC[C@H](n2cc(NC(=O)c3coc(-c4ccnc(NCC5CC5)c4)n3)c(C(F)F)n2)CC1 (some centres unmarked) [I-43],IC50,TNFα [5],100 to 500 nM
same,DC50,IRAK4 [1]; [10],10 to 100 nM
same,DC50,IRAK4 [6],50 to 100 nM
same,DC50,IRAK4 [7],100 to 500 nM
same,IC50,OCI-LY10 [4],> 1000 nM
same,IC50,TNFα [8],100 to 500 nM
CN(CCCOCCCc1ccc2c(c1)c1cccnc1n2C1CCC(=O)NC1=O)C[C@H]1CC[C@H](n2cc(NC(=O)c3coc(-c4ccnc(NCC5CC5)c4)n3)c(C(F)F)n2)CC1 (some centres unmarked) [I-46],IC50,TNFα [5],100 to 500 nM
same,DC50,IRAK4 [1]; [10],10 to 100 nM
same,DC50,IRAK4 [1]; [11],10 to 100 nM
same,DC50,IRAK4 [6],500 to 1000 nM
same,DC50,IRAK4 [7],100 to 500 nM
same,IC50,OCI-LY10 [4],500 to 1000 nM
same,IC50,TNFα [8],> 1000 nM
CN(C[C@H]1CC[C@H](n2cc3cc(NC(=O)c4cccc(C(F)(F)F)n4)c(C(C)(C)O)cc3n2)CC1)C1CCN(Cc2cccc3c2n(C)c(=O)n3C2CCC(=O)NC2=O)CC1 (some centres unmarked) [I-191],IC50,IL-6,1 to 10 nM
same,IC50,OCI-LY19,> 10000 nM
same,DC50,IRAK4 [1]; [10],< 10 nM
same,IC50,SU-DHL2,> 10000 nM
same,IC50,OCI-LY10 [2],> 10000 nM
same,IC50,U2932,> 10000 nM
same,DC50,IRAK4 [9],< 10 nM
same,IC50,SU-DHL6,5600 nM
same,DC50,IRAK4 [3],4 nM
same,IC50,OCI-LY10 [4],> 1000 nM
